Measurements: patent publication US6737383B1, “Herbicidal oxadiazolidines” (priority 1999, dated 2004)

Key:
surinam grass = assay: Test B pre/postemergence surinam grass; format: in vivo, Brachiaria decumbens
In short: (§1)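 Herbicidal effect was estimated by eye on a ten-point control scale after plants spent twelve to sixteen days in a greenhouse following soil or foliar treatment. Foliar sprays targeted plants at one to four leaves; all doses were formulated in a non-phytotoxic solvent with surfactant.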

cocklebur = assay: Test B pre/postemergence cocklebur; format: in vivo, Xanthium strumarium
In short: as §1

rice = assay: Test B flood test rice; format: in vivo, Oryza sativa
In short: (§2)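 Flood test on plants grown to the 2-leaf stage; treated plants kept in greenhouse twelve to sixteen days, then visually rated against controls on a 0 (no effect) to 10 (complete control) scale.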

velvetleaf = assay: Test B pre/postemergence velvetleaf; format: in vivo, Abutilon theophrasti
In short: as §1

sugar beet = assay: Test B pre/postemergence sugar beet; format: in vivo, Beta vulgaris
In short: as §1

giant foxtail = assay: Test B pre/postemergence giant foxtail; format: in vivo, Setaria faberii
In short: as §1

bedstraw = assay: Test B pre/postemergence bedstraw; format: in vivo, Galium aparine; details: Postemergence
In short: as §1

wheat = assay: Test B pre/postemergence wheat; format: in vivo, Triticum aestivum
In short: as §1

bamyardgrass = assay: Test B flood test barnyardgrass; format: in vivo, Echinochloa crus-galli
In short: as §2

blackgrass = assay: Test B pre/postemergence blackgrass; format: in vivo, Alopecurus myosuroides
In short: as §1

wild oat = assay: Test B pre/postemergence wild oat; format: in vivo, Avena fatua
In short: as §1

pigweed = assay: Test B pre/postemergence pigweed; format: in vivo, Amaranthus retroflexus
In short: as §1

purple nutsedge = assay: Test B pre/postemergence purple nutsedge; format: in vivo, Cyperus rotundus
In short: as §1

duck salad = assay: Test B flood test duck salad; format: in vivo, Heteranthera limosa
In short: as §2

crabgrass = assay: Test B pre/postemergence crabgrass; format: in vivo, Digitaria sanguinalis
In short: as §1

morningglory = assay: Test B pre/postemergence morningglory; format: in vivo, Ipomoea hederacea
In short: as §1

[1] = Postemergence, Rate 500 g/ha, scale of 0 to 10 where 0 is no effect and 10 is complete control
[2] = Preemergence, Rate 62 g/ha, scale 0 to 10 (0 no effect, 10 complete control)
[3] = Preemergence, Rate 125 g/ha, scale of 0 to 10 where 0 is no effect and 10 is complete control
[4] = Preemergence, Rate 250 g/ha, scale 0 to 10, 0 is no effect, 10 is complete control
[5] = Preemergence, Rate 500 g/ha, scale 0 to 10, 0 is no effect, 10 is complete control
[6] = Rate 62 g/ha, Postemergence, scale 0 to 10 (0 no effect, 10 complete control)
[7] = Rate 125 g/ha, Postemergence, scale 0 to 10, 0 is no effect, 10 is complete control
[8] = Postemergence, Rate 250 g/ha, scale 0 to 10
[9] = Postemergence block (flood test species), Rate 250 g/ha, scale 0 to 10
[10] = Postemergence section (flood test species), Rate 500 g/ha, scale of 0 to 10 where 0 is no effect and 10 is complete control
[11] = Rate 62 g/ha, Postemergence (flood test), scale 0 to 10, 0 no effect, 10 complete control
[12] = Rate 125 g/ha, Postemergence section (flood test species), scale 0 to 10, 0 is no effect, 10 is complete control

CC(C)N(C(=O)n1oc(=O)n(C(C)C#N)c1=O)c1ccccc1 (stereo not drawn) [Compound 435]
4: Redroot pigweed plant response rating (pigweed; [4])
0: Plant response rating, B. signalgrass (surinam grass; [2]) | Plant response rating, B. signalgrass (surinam grass; [3]) | B. signalgrass plant response rating (surinam grass; [4]) | B. signalgrass plant response rating (surinam grass; [6]) | B. signalgrass plant response rating (surinam grass; [7]) | Cocklebur plant response rating (cocklebur; [8]) | Cocklebur plant response rating (cocklebur; [1]) | Plant response rating, Cocklebur (cocklebur; [2]) | Plant response rating, Cocklebur (cocklebur; [3]) | Cocklebur plant response rating (cocklebur; [4]) | Cocklebur plant response rating (cocklebur; [5]) | Cocklebur plant response rating (cocklebur; [6]) | Cocklebur plant response rating (cocklebur; [7]) | Rice plant response rating (rice; [9]) | Rice plant response rating (rice; [10]) | Rice plant response rating (rice; [11]) | Rice plant response rating (rice; [12]) | Velvetleaf plant response rating (velvetleaf; [8]) | Velvetleaf plant response rating (velvetleaf; [1]) | Plant response rating, Velvetleaf (velvetleaf; [2]) | Plant response rating, Velvetleaf (velvetleaf; [3]) | Velvetleaf plant response rating (velvetleaf; [6]) | Velvetleaf plant response rating (velvetleaf; [7]) | Sugarbeets plant response rating (sugar beet; [8]) | Sugarbeets plant response rating (sugar beet; [1]) | Plant response rating, Sugarbeets (sugar beet; [2]) | Plant response rating, Sugarbeets (sugar beet; [3]) | Sugarbeets plant response rating (sugar beet; [4]) | Sugarbeets plant response rating (sugar beet; [6]) | Sugarbeets plant response rating (sugar beet; [7]) | Plant response rating, Giant foxtail (giant foxtail; [2]) | Giant foxtail plant response rating (giant foxtail; [6]) | Bedstraw plant response rating (bedstraw; Rate 250 g/ha, scale 0 to 10) | Bedstraw plant response rating (bedstraw; Rate 500 g/ha, scale of 0 to 10 where 0 is no effect and 10 is complete control) | Bedstraw plant response rating (bedstraw; Rate 62 g/ha, scale 0 to 10 (0 no effect, 10 complete control)) | Bedstraw plant response rating (bedstraw; Rate 125 g/ha, scale 0 to 10, 0 is no effect, 10 is complete control) | Wheat plant response rating (wheat; [8]) | Wheat plant response rating (wheat; [1]) | Plant response rating, Wheat (wheat; [2]) | Plant response rating, Wheat (wheat; [3]) | Wheat plant response rating (wheat; [4]) | Wheat plant response rating (wheat; [5]) | Wheat plant response rating (wheat; [6]) | Wheat plant response rating (wheat; [7]) | Barnyardgrass plant response rating (bamyardgrass; [9]) | Barnyardgrass plant response rating (bamyardgrass; [10]) | Barnyardgrass plant response rating (bamyardgrass; [11]) | Barnyardgrass plant response rating (bamyardgrass; [12]) | Plant response rating, Blackgrass (blackgrass; [2]) | Plant response rating, Blackgrass (blackgrass; [3]) | Blackgrass plant response rating (blackgrass; [4]) | Blackgrass plant response rating (blackgrass; [6]) | Blackgrass plant response rating (blackgrass; [7]) | Wild oats plant response rating (wild oat; [8]) | Plant response rating, Wild oats (wild oat; [2]) | Plant response rating, Wild oats (wild oat; [3]) | Wild oats plant response rating (wild oat; [6]) | Wild oats plant response rating (wild oat; [7]) | Redroot pigweed plant response rating (pigweed; [6]) | Redroot pigweed plant response rating (pigweed; [7]) | Nutsedge plant response rating (purple nutsedge; [8]) | Plant response rating, Nutsedge (purple nutsedge; [2]) | Plant response rating, Nutsedge (purple nutsedge; [3]) | Nutsedge plant response rating (purple nutsedge; [4]) | Nutsedge plant response rating (purple nutsedge; [5]) | Nutsedge plant response rating (purple nutsedge; [6]) | Nutsedge plant response rating (purple nutsedge; [7]) | Ducksalad plant response rating (duck salad; [9]) | Ducksalad plant response rating (duck salad; [10]) | Ducksalad plant response rating (duck salad; [11]) | Ducksalad plant response rating (duck salad; [12]) | Crabgrass plant response rating (crabgrass; [6]) | Plant response rating, Morningglory (morningglory; [2]) | Plant response rating, Morningglory (morningglory; [3]) | Morningglory plant response rating (morningglory; [4]) | Morningglory plant response rating (morningglory; [5])
9: Giant foxtail plant response rating (giant foxtail; [1]) | Giant foxtail plant response rating (giant foxtail; [5]) | Crabgrass plant response rating (crabgrass; [5]) | Morningglory plant response rating (morningglory; [1])
8: Giant foxtail plant response rating (giant foxtail; [8]) | Blackgrass plant response rating (blackgrass; [1]) | Redroot pigweed plant response rating (pigweed; [5]) | Crabgrass plant response rating (crabgrass; [1])
6: Blackgrass plant response rating (blackgrass; [8]) | Crabgrass plant response rating (crabgrass; [4]) | Morningglory plant response rating (morningglory; [8])
1: B. signalgrass plant response rating (surinam grass; Postemergence, Rate 250 g/ha, scale 0 to 10, 0 no effect, 10 complete control) | B. signalgrass plant response rating (surinam grass; [5]) | Velvetleaf plant response rating (velvetleaf; [4]) | Sugarbeets plant response rating (sugar beet; [5]) | Morningglory plant response rating (morningglory; [6])
3: B. signalgrass plant response rating (surinam grass; [1]) | Giant foxtail plant response rating (giant foxtail; [4]) | Giant foxtail plant response rating (giant foxtail; [7]) | Wild oats plant response rating (wild oat; [1]) | Wild oats plant response rating (wild oat; [5]) | Nutsedge plant response rating (purple nutsedge; [1])
7: Crabgrass plant response rating (crabgrass; [8])
2: Velvetleaf plant response rating (velvetleaf; [5]) | Plant response rating, Giant foxtail (giant foxtail; [3]) | Blackgrass plant response rating (blackgrass; [5]) | Wild oats plant response rating (wild oat; [4]) | Redroot pigweed plant response rating (pigweed; [8]) | Redroot pigweed plant response rating (pigweed; [1]) | Plant response rating, Redroot pigweed (pigweed; [2]) | Plant response rating, Redroot pigweed (pigweed; [3]) | Plant response rating, Crabgrass (crabgrass; [3]) | Crabgrass plant response rating (crabgrass; [7]) | Morningglory plant response rating (morningglory; [7])
